The values below come from article PMC7309601 (Frontiers in Neuroscience, 2020).

Data set [1] deals with scopolamine-treated mice. Kind of data set: Novel object recognition (NOR) task after scopolamine challenge. It counts as in vivo. Particulars: scopolamine 0.5 mg/kg s.c. As for the experimental part:
(§1) Both novel object recognition (NOR) and novel object location (NOL) tests were carried out in an open-field arena during three phases ([Leger et al., 2013]; [Vogel-Ciernia and Wood, 2014]; [Lueptow, 2017]). (i) For the habituation phase on the first day, mice were allowed to freely explore the empty apparatus. (ii) On the second day, two identical objects were placed at two opposite edges of the arena. Time spent by the mouse exploring the two objects was recorded. (iii) Twenty-four hours later, one of the two familiar objects was replaced by a novel one (NOR) or displaced (NOL). Mice were allowed to explore the whole arena during 10 min for each of the three phases. The preference index was calculated as the ratio of the duration of contacts with the novel/displaced object over the total duration of contacts with the two objects. Locomotion was recorded using EthoVision software (Noldus, Paris, France).

Data set [2] relates to Aβ25–35 peptide-injected mice. Put plainly: Novel object recognition (NOR) task in Aβ25–35-injected mice. The format is in vivo. The procedure:
as §1

Data set [3] has as its system ACh outflow in the hippocampus. Kind of data set: Hippocampal microdialysis and quantification of ACh. Particulars: MEF 1 mg/kg i.p. alone. It counts as in vivo, mice. As for the experimental part:
Mice were anesthetized with isoflurane, placed in a stereotaxic frame and bilaterally implanted with probes in both left and right hippocampi.
Concentrations of ACh in the microdialysis samples were analyzed by the Pronexus Analytical AB company (Stockholm, Sweden) using UHPLC tandem mass spectrometry (MS/MS). Briefly, the UHPLC-MS/MS system included a PAL autosampler (CTC Analytics, Zwingen, Switzerland), an Advance UHPLC pump, and an EVOQ Elite triple quadrupole mass spectrometer (Bruker Daltonics, Fremont, CA, United States) equipped with electrospray ionization source operating in a positive mode at +4,500 V. The source parameters were as follows: probe gas flow: 50, nebulizer gas flow: 60, probe temperature: +300°C, cone gas flow: 30, cone temperature: +200°C, CID gas: Ar 1.5 mTorr. A Titan PFP column (100 × 2.1 mm, 1.9 μm, 120 Å pore size) purchased from Sigma-Aldrich (Sweden) was used for UHPLC. Deuterated ACh (acetylcholine-1,1,2,2-d4 bromide; ACh-d4), used as internal standard, was purchased from C/D/N Isotopes (QMX Laboratories, Dunmow CM6 2PY, United Kingdom). Typically, 10 μL of aCSF or hippocampal microdialysate was mixed with 20 μL of ACh-d4 internal standard (50 nM, in aCSF), and 5 μL of the mixture was injected into the column. The mobile phase A was 0.1% (vol/vol) formic acid in water; the mobile phase B was acetonitrile with 0.1% formic acid. The linear elution gradient was as follows: 0–0.5 min: 5% B; 3.5 min: 55% B; 3.6 to 4.0 min: 70% B; 4.1 min, 5% B. The flow rate was 400 μL/min, and the total run-to-run time was 4.8 min. The calibration curve was linear in the range of 0.1 to 409.6 nM ACh (R^2 = 0.999); the estimated limit of detection was 0.05 nM, and the lower limit of quantification was 0.15 nM.
. 1 mg/kg, i.p.), or vehicle (NaCl 0.9%). Values are expressed as means ± SEM, n = 4–7 per group. Two-way ANOVA followed by Fisher least significant difference: *P < 0.05, **P < 0.01 vs Vehicle; […]. Acetylcholinesterase activity is expressed as percent of that determined in the absence of drugs. […]

For the next data set, the target named is T1, mouse hippocampus AChE (Mus musculus, UniProt P21836).
T1 construct: from tissue; host or cells: mouse hippocampus homogenate, cleared supernatant
T1 sequence (P21836 32-614): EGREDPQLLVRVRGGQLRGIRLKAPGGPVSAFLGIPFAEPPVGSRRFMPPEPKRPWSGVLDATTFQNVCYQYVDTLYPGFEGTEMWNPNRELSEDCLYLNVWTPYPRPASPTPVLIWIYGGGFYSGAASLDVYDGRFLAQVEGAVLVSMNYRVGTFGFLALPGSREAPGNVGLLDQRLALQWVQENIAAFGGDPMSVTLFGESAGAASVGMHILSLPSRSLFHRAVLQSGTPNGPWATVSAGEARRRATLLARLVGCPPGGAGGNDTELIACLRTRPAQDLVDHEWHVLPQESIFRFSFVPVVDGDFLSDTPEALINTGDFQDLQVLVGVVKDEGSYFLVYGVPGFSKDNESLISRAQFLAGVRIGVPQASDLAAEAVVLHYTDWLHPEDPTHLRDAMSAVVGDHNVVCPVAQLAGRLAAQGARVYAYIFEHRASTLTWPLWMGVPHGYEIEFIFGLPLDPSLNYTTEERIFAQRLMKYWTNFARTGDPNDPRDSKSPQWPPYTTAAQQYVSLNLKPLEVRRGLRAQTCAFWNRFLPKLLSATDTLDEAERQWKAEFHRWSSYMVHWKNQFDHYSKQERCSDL
It counts as biochemical. As for the experimental part:
Acetylcholinesterase activity was quantified using a cholinesterase activity assay kit according to manufacturer’s recommendations (MAK119; Sigma, St. Louis, MO, United States). Briefly, mouse hippocampus was homogenized (10 μL/mg) in 0.1 M Na/K phosphate buffer (PB) (pH 7.5) at 4°C followed by centrifugation at 30,000 × g for 5 min. […] Absorbance at 415 nm was quantified using VICTOR plate reader (Perkin–Elmer Inc., Waltham, Massachusetts, United States) at 2-min intervals from time 0 (tissue sample addition) up to 10 min. Acetylcholinesterase activity was expressed as units/L. One unit of AChE is the amount of enzyme that catalyzes the production of 1.0 μmol of thiocholine per minute at room temperature at pH 7.5.
Acetylcholinesterase activity is expressed as percent of that determined in the absence of drugs.

The nature of a further data set: in vivo. To be noted: rat. As for the experimental part: Drugs were administered p.o., once per day for 14 days.
Blood was collected on the 14th treatment day, just prior to drug administration (T0) and then 30 min, 1, 2, 4, 8, and 24 h later. Blood was collected by retro-orbital puncture except for the last collection, which was made by intracardiac puncture. After coagulation, blood samples were centrifuged at 3,000 × g for 15 min, and serum was collected and stored at −80°C. Rats were sacrificed by decapitation immediately after the last blood collection, and their brains including brainstem and cerebellum were removed as one piece, placed on tinfoil precooled on dry ice and stored at −80°C until drug quantifications.
One volume of brain or serum samples was added to three volumes of human serum EDTA K3, and the mixture was homogenized under magnetic stirring for 15 min for analysis using a Sciex API4000 Qtrap mass spectrometer coupled to a Shimadzu HPLC system (Shimadzu Corporation, Marne-la-Vallée, France).
(A,C) Blood samples were collected before treatment (T0) and then at 0.5, 1, 2, 4, 8, and 24 h after the last administration on day 14. (B,D) Brain samples were collected on day 15, 24 h after the last drug administration. […] No statistical analysis applicable (C,D). Bars in black indicate combination treatments.

The target in another data set is T2, sigma-1 receptor (Homo sapiens, UniProt Q99720).
T2 construct: Eurofins CEREP
Kind of data set: Eurofins CEREP sigma-1 receptor test. It counts as binding. To be noted: MEF at a concentration as high as 1 μM; data not shown.

The target in a further data set is 5-HT1A. The arrangement: method as in Thompson et al., 2007; Janowsky et al., 2014. Particulars: ref Thompson et al., 2007; Janowsky et al., 2014; cited from earlier work.
Another data set has as its target 5-HT2C. The arrangement: method as in Thompson et al., 2007; Janowsky et al., 2014. To be noted: ref Thompson et al., 2007; Janowsky et al., 2014; cited from earlier work.
Another data set deals with 5-HT3 receptors. The arrangement: method as in Thompson et al., 2007; Janowsky et al., 2014. To be noted: ref Thompson et al., 2007; Janowsky et al., 2014; cited from earlier work.
Data set [4] deals with noradrenaline transporters. The arrangement: method as in Janowsky et al., 2014. Particulars: ref Janowsky et al., 2014; cited from earlier work.
Data set [5] has as its system Cx-mediated astroglial cellular coupling. Set-up: method as in Jeanson et al., 2016. To be noted: same concentration range as reached under the treatment conditions; ref Jeanson et al., 2016; cited from earlier work.
For data set [6] the following is noted: rat, in vivo; cited from earlier work.
For data set [7], the system named is Aβ25–35 peptide-injected mice. Put plainly: Morris water maze in Aβ25–35-injected mice.
From the text: Control groups received the vehicles only under the very same conditions (volume, time, route of administration) as tested drugs.
Both peptides Aβ25–35 and Sc.Aβ (scramble Aβ25–35) were purchased from PolyPeptides (Strasbourg, France).
Mice were placed in a circular pool with external cues in the room. […] Training consisted of three swims with 20-min intertrial time each day for 5 days, performed between days 11 and 15 after Aβ25–35 peptide or Sc.Aβ peptide i.c.v. injection. Random starting positions were selected each day, and each animal was allowed a 90-s swim to find the platform. Probe test was performed 24 h after the last swim (day 16 after peptide injection). The platform was removed, and each animal was allowed a free 60-s swim. The time spent in each quadrant was determined. Swimming was recorded using EthoVision software (Noldus).
For data set [8], the system named is scopolamine-treated mice injected with sh-GFP, sh-Cx30 or sh-Cx43. Put plainly: Novel object location (NOL) task in lentiviral vector-injected, scopolamine-treated mice. It counts as in vivo. To be noted: scopolamine 0.5 mg/kg s.c.; all LV-injected mice.
For data set [9], the system named is scopolamine-treated mice. Kind of data set: Y-maze spontaneous alternation task after scopolamine challenge. To be noted: scopolamine 0.5 mg/kg s.c. 20 min before task.
Method: Mefloquine (Sigma-Aldrich, L’Isle d’Abeau Chesnes, France) and DPZ (Sigma-Aldrich) were dissolved in 2% dimethyl sulfoxide (DMSO) and administered acutely either intraperitoneally (i.p.) (5 mL/kg) or by oral gavage (p.o.) (10 mL/kg). Scopolamine (Sigma-Aldrich) was administered subcutaneously (s.c.) (5 mL/kg) in saline solution (0.9% NaCl).
Mice were placed at the end of one arm of a Y-maze and allowed to move freely through the maze during an 8-min session. Spontaneous alternation was defined as entries into all three arms on consecutive occasions. […] The number of total arm entries during the 8-min session was used to quantify locomotor activity.

As usually defined, the Ki is the equilibrium dissociation constant of an inhibitor or competing ligand from its target.

“Also recorded” adds a separate entry of the source.

T2 sequence (Q99720 whole entry, species assumed): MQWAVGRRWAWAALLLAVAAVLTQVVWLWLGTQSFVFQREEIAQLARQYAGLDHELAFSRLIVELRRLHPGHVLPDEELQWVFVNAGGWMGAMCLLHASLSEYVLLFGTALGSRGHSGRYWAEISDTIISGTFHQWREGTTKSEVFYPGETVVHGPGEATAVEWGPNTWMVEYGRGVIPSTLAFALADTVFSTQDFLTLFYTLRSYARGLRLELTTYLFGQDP

For `OC(c1cc(C(F)(F)F)nc2c(C(F)(F)F)cccc12)C1CCCCN1` (stereo not shown) [MEF, Mefloquine], the “NOR test session: effect on scopolamine-induced loss of novel object preference” value in the data set on scopolamine-treated mice [1] (MEF 1 mg/kg i.p.) is reported as “Neither MEF1 i.p., nor DPZ0.25 i.p., prevented the scopolamine effect”. In addition, the “NOR test phase: effect on Aβ-induced impairment (preference index)” value in data set [2] (MEF 1 mg/kg p.o. daily from day 1, Aβ25–35 i.c.v.) was “did not reverse the Aβ-induced impairment”. Further, the “Hippocampal ACh outflow” value in [3] was “did not significantly modify ACh outflow”. At mouse hippocampus AChE (MEF 0.5–4 μM added to DPZ, brain extracts), the “Effect of MEF on the potency of DPZ to inhibit AChE activity” value is on record as “did not modify the potency of DPZ to inhibit AChE activity; also recorded: failed to affect DPZ-induced inhibition of AChE activity”. In addition, on mouse hippocampus AChE (even at 10 times the concentration reached in the brain), the “Effect of MEF on AChE activity” value is recorded as “devoid of any effect on AChE activity”. In addition, in the data set “in vivo”, the concentration at 24 h was around 500 nM. In addition, at sigma-1 receptor, the “Interference with sigma-1 receptor” value is given as “does not interfere with sigma-1 receptor”. The Ki (on 5-HT1A; at 5-HT2C; on 5-HT3 receptors; in data set [4]) was above 1000 nM in each case. In addition, in data set [5], the “Cx-mediated astroglial cellular coupling” value was “efficiently reduces Cx-mediated astroglial cellular coupling”. In addition, the “Crossing of the blood–brain barrier” value in data set [6] is on record as “able to cross the blood–brain barrier”. Further, the “Morris water maze learning (swim latency): effect on Aβ-induced memory deficit” value in [7] (MEF 1 mg/kg p.o. daily) is given as “showed no effect”.

`CN1[C@@H]2C[C@@H](OC(=O)[C@H](CO)c3ccccc3)C[C@H]1[C@@H]1O[C@@H]12` [scopolamine, Scopolamine]: the “NOR test session: effect of scopolamine on exploration of the novel object” value with scopolamine-treated mice [1] is “abolished the increase in exploration time of the novel object”. Further, in data set [8], the “NOL task: preference index for the displaced object” value is given as around 50%. Moreover, the “Spontaneous alternation (Y-maze): effect of scopolamine vs vehicle-treated mice” value in the data set on scopolamine-treated mice [9] is on record as “significantly impaired spontaneous alternation”.

Turning to “Aβ: Aβ25–35 peptide injected i.c.v. to induce Alzheimer’s disease–like memory deficits (GSNKGAIIGLM; Amyloid-beta protein 42; UniProt P05067 696-706, looked up, fragment)”, in [2] (9 nmol Aβ25–35 i.c.v.), the “NOR test phase: effect of Aβ administration on exploration of the novel object” value was “abolished the increase in exploration time of the novel object”. Moreover, in data set [7] (9 nmol Aβ25–35 i.c.v., learning days 3–5), the “Morris water maze learning: effect of Aβ i.c.v. injection vs Sc.Aβ” value is on record as “induced a significant memory deficit”.
